Data from patent publication US12215389B2, “Compositions for detecting epigenetic modifications” (EXACT SCIENCES CORPORATION, priority 2007, dated 2025).

Tests used:
[1] = test system: methylated gene promoters in plasma DNA; test: Real-time MSP on plasma DNA; set-up: species or system human; details: for % Specificity (all 59 controls), plasma set 1: plasma training set 1
Method: 10 ml of blood was obtained per individual using EDTA Vacutainer™ tubes. Individuals with no suspicious findings, adenomas or carcinomas based on colonoscopy were enrolled in the present study. Within 4 hrs from the blood drawing, the plasma fraction was separated from the cell fraction by centrifugation at 1500 g for 15 min (4° C.). The plasma was transferred to new tubes and once again centrifuged (1500 g, 15 min, 4° C.), after which the supernatant was transferred to new tubes and stored at −80° C. until further use. Samples were shipped on dry ice.
DNA isolation from plasma samples (1.2 to 6 ml) was performed using an upscaled phenol-chloroform DNA isolation method using the 15 ml of Heavy Phase lock Gel tubes (PLG tubes) (Eppendorf, cat #0032 005.152) or alternatively the ChargeSwitch® gDNA 1 ml serum kit from Invitrogen (cat #CS11040).
Plasma samples were thawed and 1/10 volume of 10× buffer (240 mM EDTA (pH=8.0), 750 mM NaCl), 1/10 volume of 10% SDS and 5 μl of Proteinase K (20 mg/ml stock solution) per 1 ml of sample (e.g. 15 μl for 3 ml of sample) was added to each plasma sample. This mixture was incubated overnight at 48° C. at constant shaking (200 RPM).
Subsequently the PLG tube was centrifuged at 2500 RCF for 3 min, sample mixture and approximately the same volume of phenol/chloroform (Invitrogen, cat #15593049) were added to it. This solution was briefly vortexed, mixed for 10 min using a tube rocker at room temperature and centrifuged for 5 min at 2500 RCF. In case the retrieved sample volume was ≤4 ml, an equal volume of phenol/chloroform was added. The upper aqueous layer was phenol/chloroform-treated for a second time.
DNA was precipated from the upper aqueous layer by adding 5 μl glycogen, 1/10 volume of 7.5 M Ammonium Acetate and 2-2.5 volumes of cold (−20° C.) 100% ethanol. Tubes were gently inverted and incubated at −20° C. for at least 1 h, followed by a centrifugation step at 17000 RCF for 30 min (4° C.). Ethanol was carefully removed by pipetting. Pellets were washed with 2 ml freshly prepared 70% ethanol, vortexed gently and submitted to a centrifugation step at 17000 RCF for 15 min at 4° C. After careful removal of the remaining ethanol, pellets were air dried and resuspended in 45 μl of LoTE pH 8.0. The isolated DNA is stored at −80° C. until further processing.
The complete content of DNA isolated in above procedure was subjected to sodium bisulfite treatment (BT) using the EZ-96 DNA Methylation kit from Zymo Research (Cat #D5003) performed on a pipetting robot (Tecan Freedom EVOII, Roma, Liha, Mca, Te-Vacs). Briefly, 45 μl of plasma DNA sample was mixed with 5 μl of M-Dilution Buffer (provided in kit) and incubated at 37° C. for 15 min shaking at 1100 RPM. This mixture was further incubated with 100 μl of diluted CT conversion reagent (provided in kit) shaking at 70° C. for 3 hours (protected from light). Subsequently the modified DNA was desalted and desulfonated according to manufacturer's instructions and eluted in either 40 μl or 20 μl of Tris-HCl 1 mM pH8.0, depending on the applied concentration procedure. The eluted material was stored at −80° C. until further processing.
2.4 μl of the modified DNA was added to a PCR mix (total volume 12 μl) containing home-made buffer solution (final concentrations are summarized: 16.6 mM (NH4)2SO4, 67 mM Tris (pH 8.8), 6.7 mM MgCl2, 10 mM β-mercaptoethanol), dNTPs (5 mM; Amersham Biosciences cat #27-2035-02), methylation specific forward primer (6 ng), methylation specific reverse primer (18 ng), molecular beacon (0.16 μM) and Jumpstart DNA Taq polymerase (0.4 units; Sigma Cat #D9307).
A standard curve was included (9.6×10^5—9.6 copies) to determine copy numbers of unknown samples by interpolation of their Ct values to the standard curve.
DNA was isolated following the upscaled phenol-chloroform procedure; subsequently the whole DNA sample was modified as described above.

[2] = test system: NDRG4 expression in RKO and HCT116 cell lines; test: NDRG4 re-expression by real-time RT-PCR after treatment with DAC and TSA; type: cell-based, human; details: combined treatment, 1 μM DAC and 300 nM TSA, cyclophilin reference gene
Method: Colon cancer cell lines LS174T, HCT116, HT29, RKO, CaCo2, Colo205, SW48 and SW480 were used for MSP, bisulfite sequencing and real time (reexpression) RT-PCR ([…] and 300 nM TSA).
Total RNA isolation was isolated by use of the Rneasy Mini kit (Qiagen) cDNA synthesis using the Iscript cDNA synthesis kit (Bio-Rad). Quantitative real-time reverse transcription-PCR was done using SYBR Green PCR Master Mix (Applied Biosystems, Nieuwekerk a/d IJssel, the Netherlands). Primers and PCR conditions are specified in Table 21.
Expression of the NDRG4 gene was determined by real-time reverse-transcription PCR (RT-PCR). […] Relative expression of NDRG4 after treatment with DAC and TSA was compared to untreated cell lines. Cyclophilin was used as a reference gene for expression normalisation.

tumor endothelial cells = details: DAC and TSA together, Hellebrekers, Melotte et al. 2007; cited from earlier work
[3] = test system: NDRG1 expression in cancer cells; details: Guan et al. 2000, Bandyopadhyay et al. 2004; cited from earlier work
[4] = test system: NDRG4 mRNA in CRC cell lines HCT116 and RKO; test: NDRG4 reexpression following inhibition of DNA methyltransferases (quantitative RT-PCR); type: cell-based, human; details: 1 μM DAC
Method: CRC cell lines HT29, SW480, Caco2, Colo205, RKO, LS174T, HCT116 and SW480 were cultured in DMEM (Invitrogen) supplemented with 10% heat-inactivated fetal calf serum (Hyclone). To investigate reexpression of NDRG4 following inhibition of DNA methyltransferases, HCT116 and RKO were treated with 1 μM DAC (Sigma).
Total RNA from cell lines, normal mucosa and tumor tissue was isolated using the Rneasy Mini kit (Qiagen) following the manufacturers instructions. Possible genomic DNA contaminations were removed by DNAse treatment with the RNase-free DNAse set (Qiagen). cDNA synthesis using the Iscript cDNA synthesis kit (Bio-Rad) was performed. Quantitative real-time (RT-PCR) was performed using SYBR Green PCR master mix (Applied Biosystems, Nieuwekerk a/d IJssel, The Netherlands). Realtime RT-PCR mixes were composed of 1× iQ SYBR Green Supermix (Bio-Rad), 400 nM of the forward (SEQ ID NO: 3 5′-[…]-3′) and reverse (SEQ ID NO: 4 5′-[…]-3′) primer and cDNA corresponding to 30 ng total RNA per reaction. As standard control, primers targeted against cyclophilin A were used. Reactions were run using the iCycler (Bio-Rad) for 40 cycles at a Tm of 60° C. The comparative Ct method was used to calculate differences in mRNA expression. […] Next, the fold difference in expression was calculated as 2-^[delta][delta]Ct, with [delta][delta]Ct=[delta]Ct,sample1-[delta]Ct,control. […]

[5] = test system: methylated gene promoters in FFPE tissue DNA; test: Real-time MSP on colon tissue samples; set-up: species or system human
Method: Real-time MSP was applied on a 7900HT fast real-time PCR system (Applied Biosystems). 2.4 μl of the modified DNA (equivalent to 2.5 μg unconverted DNA) was added to a PCR mix (total volume 12 μl) containing buffer (16.6 mM (NH4)2SO4, 67 mM Tris (pH 8.8), 6.7 mM MgCl2, 10 mM β-mercaptoethanol), dNTPs (5 mM), forward primer (6 ng), reverse primer (18 ng), molecular beacon (0.16 μM), BSA (0.1 μg), and Jumpstart DNA Taq polymerase (0.4 units; Sigma Aldrich). Cycle program used was as follows: 5 minutes 95° C., followed by 45 cycles of 30 seconds 95° C., 30 seconds 57° C. (51° C. for APC), and 30 seconds 72° C., followed by 5 minutes 72° C. A standard curve (2×106—20 copies) was included to determine copy numbers of unknown samples by interpolation of their Ct values to the standard curve.
Marker selection in colon tissue: Based on re-expression, 224 different gene assays representing 145 gene promotors were tested on the Base5 methylation profiling platform (data not shown, see reference 1 for details). The 37 most differentially methylated gene sequences assessing 29 gene promoters were validated on retrospectively collected tumors from 65 colorectal cancer patients (all stages) and 74 distant resection ends (histopathologically normal) using real-time MSP. Several markers reliably detected CRC in those tissue samples (data not shown). The results were confirmed on an independent test set containing 39 tissue controls (non-cancerous), 34 carcinomas and 16 adenomas. Several combinations of the tested markers reliably detected CRC with high specificity and sensitivity.
The ten best performing markers GATA5, GATA4, SFRP1, SFRP2, APC, MGMT, NDRG4, OSMR, JPH3 and ADAM23 were validated with primer sets and beacon probes as specified in Table 24. In addition to the colon test genes, the independent reference gene β-Actin (ACT) was also measured. The ratios between the colon test genes and ACT were calculated, and are the test result of the assay.
Marker candidates identified by re-expression were screened using 37 real-time methylation specific PCR (real-time MSP) assays. These assays were used to assess the methylation status of 29 gene promoters in 293 formalin-fixed paraffin-embedded (FFPE) tissue samples collected from various clinics. Samples included 99 carcinomas of various stages, 16 adenomas, 63 samples from patients with cancer other than CRC (20 breast [stages I-III], 22 bladder [stages I-III], 21 lung [stages I and II]), 39 samples from patients with no evidence of cancer and 76 distant resection ends (histopathologically normal) from CRC patients. These samples were divided into training and independent test sets, and used to select the gene methylation assays best able to discriminate between cancerous and non-cancerous samples. The training set included retrospectively collected tumors from 65 colorectal cancer patients (all stages) and 74 distant resection ends. Using the 10 best performing genes the results were confirmed on an independent test set containing 59 samples from patients with cancer other than CRC, 39 non-cancerous controls and 50 cancer cases (34 carcinomas and 16 adenomas).
The individual performance of the 10 best performing tissue markers OSMR, SFRP1, GATA4, SFRP2, NDRG4, ADAM23, GATA5, MGMT, APC and JPH3 is shown in FIG. 7, when the analytical cut-off was set to give 100% specificity, except for JPH3 where a specificity of 95% was obtained (based on the 39 non-cancerous controls). In addition to the colon test genes, the independent reference gene β-Actin (ACT) was also measured. The ratios between the colon test genes and ACT were calculated, and are the test result of the assay.

[6] = 16 adenoma tissue samples vs 39 controls
[7] = 34 carcinoma tissue samples vs 39 controls

With “OSMR (DNA TTTGGTCGGGGTAGGAGTAGC; listed as DNA, chemistry not given here)” as the molecule, how does the “% Specificity (all 59 controls), plasma set 1” value [1] read?
The value was 100%.

And the “% Sensitivity adenomas plasma set 2: increased plasma equivalent of DNA per real-time MSP assay” value ([1]; plasma training set 2)?
Its value is 2%.

And the “% Specificity (all 89 controls), plasma set 2: increased plasma equivalent of DNA per real-time MSP assay” value ([1]; plasma training set 2)?
Its value is 99%.

Which “Relative expression of NDRG4 after treatment with DAC and TSA compared to untreated cell lines” value [2] does the source give for `CC(/C=C/C(=O)NO)=C\[C@@H](C)C(=O)c1ccc(N(C)C)cc1` [TSA, trichostatin A] here?
The value was “reactivation of NDRG4 expression”.

What about the “81 genes downregulated in tumor endothelial cells after DAC and TSA treatment” value (tumor endothelial cells) of the same molecule?
The value was “reexpressed”.

For `Nc1ncn([C@H]2C[C@H](O)[C@@H](CO)O2)c(=O)n1` [DAC, 5-aza-2′-deoxycytidine], which “Relative expression of NDRG4 after treatment with DAC and TSA compared to untreated cell lines” value [2] is on record?
The value was “reactivation of NDRG4 expression”.

What about the “81 genes downregulated in tumor endothelial cells after DAC and TSA treatment” value (tumor endothelial cells) of the same molecule?
Its value is “reexpressed”.

And the “Expression of NDRG1 after DAC treatment” value [3]?
Its value is “upregulated”.

What about the “Endogenous NDRG4 mRNA levels after treatment with DAC” value [4] of the same molecule?
The value was “significant increased”.

Which “% Specificity (all 59 controls), plasma set 1” value [1] does the source give for “SFRP2 (DNA GGGTCGGAGTTTTTCGGAGTTGCGC; listed as DNA, chemistry not given here)” here?
Its value is 97%.

And the Sensitivity [5, 6]?
Its Sensitivity is 81%.

And the Specificity [5, 6]?
The Specificity was 100%.

And the Sensitivity [5, 7]?
Its Sensitivity is 68%.

And the Specificity [5, 7]?
The Specificity was 100%.

What about the “Specificity (%)” value ([5]; 50 cases (adenoma + carcinoma) vs 39 controls, tissue) of the same molecule?
Its value is 100%.

What about the “Sensitivity (%)” value ([5]; 50 cases (adenoma + carcinoma) vs 39 controls, tissue, first cut off ratio) of the same molecule?
Its value is 72%.

And the “Sensitivity (%)” value ([5]; 50 cases (adenoma + carcinoma) vs 39 controls, tissue, second cut off ratio, between ( ))?
The value was “(84) %”.
